From US9988377B2, “Small molecule inducers of GDNF as potential new therapeutics for neuropsychiatric disorders” (THE TRUSTEES OF COLUMBIA UNIVERSITY IN THE CITY OF NEW YORK, priority 2011, dated 2018)
Like-named read-outs stand apart in the source and are kept apart here.

Tests used:
[1] = test system: GDNF release from C6 cells; test: GDNF releasing potency assay (dose-response in C6 cells); assay type: cell-based; conditions: 0.1-50 uM, concentration giving 50% of maximal GDNF release
Method: Four compounds were selected for determination of GDNF releasing potency. The EC50 value (Table 3) is defined as the concentration of the compound at which 50% of maximal GDNF release is obtained. The C6 cells were incubated with the selected compounds over a range of concentrations (0.1, 1, 5, 10, 20, 30 and 50 uM for each compound) and the amount of released GDNF at each concentration was via examing the dose-dependent release. A dose-response curve was constructed and the EC50 value was obtained by fitting this curve using GraphPad Prism software.

[2] = test system: GDNF release from C6 glioma cells; test: GDNF in-situ ELISA in C6 glioma cells; assay type: cell-based; conditions: 10 μM compound, 48-hour incubation, fold over control release, corrected for pre-treatment release; for fold induction at 10 µM: C6 glioma, 48 h, read-out: Fold-Increase of GDNF Concentration
Method: The GDNF Emax Immunoassay System from Promega (Madison, Wis.) was used to determine small molecule induced GDNF release from C6 glioma cells (ATCC, Manassas, Va.) with the following protocol. A 96-well ELISA plate was sterilized with UV for 30 minutes. The plate was coated with 100 μl/well of the anti-GDNF monoclonal antibody solution in carbonate coating buffer prepared per the manufacturer's instructions, and incubated overnight at 4° C. The antibody coating buffer was removed from the plate, which was then blocked according to the instructions in the kit. The plate was then incubated with 200 μl/well complete growth medium ([…], 5% FBS, 1% penicillin/streptomycin) for 2×1 h at rt to remove residue of the blocking buffer. After these washes were complete, fresh culture media was added to the wells. C6 cells were seeded at a density of 11,000 cells/well, with a total volume of approximately 150 μl in each well. The plate was incubated at 37° C. in an atmosphere containing 5% CO2. After 24 hours, complete growth medium was replaced with low serum medium (98.5% DMEM, 0.5% FBS, 1% penicillin/streptomycin) and the plate was incubated overnight for cellular synchronization. On the following day, cells were treated with experimental compounds for the indicated time. We used 10 μM concentrations of the tested compounds during a 48-hour incubation. Simultaneously with initiation of treatment, cells were removed from pre-treatment control wells with 5×200 μL washes of TBST (to control for basal GDNF release before the treatment period), and low-serum medium was added to these wells. 6 hours prior to stopping treatment with experimental compounds, the GDNF standard was added to the plate per the manufacturer's instructions. To terminate the treatment, the plate was washed extensively with 200 μl/well TBST washing buffer 5 times, which removed the cells. GDNF release for each well was measured according to GDNF Emax Immunoassay system instructions, and a plate reader was used to measure absorbance at 450 nm. Total GDNF release is calculated from the standard curve using Microsoft Excel. The listed values in Table 1 are presented as fold-increase of release of GDNF over control release of GDNF, corrected for pre-treatment release by subtracting from all values the mean amount of GDNF released in pre-treatment control wells. Statistical significance was determined using the Student's t-test.

[3] = test system: alcohol intake; conditions: rats; effect dependent on induction of GDNF in the VTA; cited from earlier work
[4] = test system: alcohol intake; conditions: mice; effect dependent on induction of GDNF in the VTA; cited from earlier work
[5] = Rattus norvegicus, C6, C6 cells

Which EC50 [1, 5] does the source give for CCC1CC2C=CC1N(CCc1c[nH]c3ccccc13)C2 (racemic) [Compound 10a, exo-2-[2-(1H-indol-3-yl)ethyl]-7-ethyl-2-azabicyclo[2.2.2]oct-5-ene] here?
The EC50 was 10.2 ± 0.3 µM.

What about the “Fold-Increase of GDNF Concentration” value [2] of the same molecule?
The value was 3.2 ± 0.2 fold.

With CCC1CC2C=CC1N(CCc1c[nH]c3ccccc13)C2 (racemic) [Compound 12a, endo-2-[2-(1H-indol-3-yl)ethyl]-7-ethyl-2-azabicyclo[2.2.2]oct-5-ene] as the molecule, how does the EC50 ([1]; C6 cells) read?
Its EC50 is 18.2 ± 0.2 µM.

What about the fold induction at 10 µM [2] of the same molecule?
Its fold induction at 10 µM is 2 ± 0.1.

Which fold induction at 10 µM [2] does the source give for CCC1CC2C=CC1N(CCc1c[nH]c3ccc(C(F)(F)F)cc13)C2 (racemic) [Compound 12f, endo-7-ethyl-2-[2-(5-trifluoromethyl-1H-indol-3-yl)ethyl]-2-azabicyclo[2.2.2]oct-5-ene] here?
Its fold induction at 10 µM is 2.

Which EC50 ([1]; C6 cells) does the source give for CCC1CC2C=CC1N(CCc1coc3ccccc13)C2 (racemic) [Compound 12g, endo-2-[2-(benzofuran-3-yl)ethyl]-7-ethyl-2-azabicyclo [2.2.2]oct-5-ene] here?
Its EC50 is 3.6 ± 0.1 µM.

And the EC50 [1, 5]?
The EC50 was 3.3 µM.

And the fold induction at 10 µM [2]?
Its fold induction at 10 µM is 2.9 ± 0.1.

With CCC1CC2C=CC1N(CCc1c[nH]c3ccc(F)cc13)C2 (racemic) [Compound 12h, endo-7-ethyl-2-[2-(5-fluoro-1H-indol-3-yl)ethyl]-2-azabicyclo[2.2.2]oct-5-ene] as the molecule, how does the EC50 [1, 5] read?
Its EC50 is 3.3 µM.

And the fold induction at 10 µM [2]?
Its fold induction at 10 µM is 3.1 ± 0.2.

Which fold induction at 10 µM [2] does the source give for CCC1CC2C=CC1N(CCc1nc3ccccc3[nH]1)C2 (racemic) [Compound 12l, endo-2-[2-(1H-benzo[d]imidazol-2-yl)ethyl]-7-ethyl-2-azabicyclo[2.2.2]oct-5-ene] here?
Its fold induction at 10 µM is 1.5.

For CCC1CC2CCC1N(CCc1c[nH]c3ccccc13)C2 (racemic) [Compound 13a, endo-2-[2-(1H-indol-3-yl)ethyl]-7-ethyl-2-azabicyclo [2.2.2]octane], which fold induction at 10 µM [2] is on record?
Its fold induction at 10 µM is 2.

Which fold induction at 10 µM [2] does the source give for CCC1CC2CCC1N(CCc1c[nH]c3ccc(F)cc13)C2 (racemic) [Compound 13b, endo-7-ethyl-2-[2-(5-fluoro-1H-indol-3-yl)ethyl]-2-azabicyclo [2.2.2]octane] here?
Its fold induction at 10 µM is 2.

With C1=CC2CCC1CN2CCc1c[nH]c2ccccc12 (racemic) [Compound 18a, 2-[2-(1H-indol-3-yl)ethyl]-2-azabicyclo[2.2.2]oct-5-ene] as the molecule, how does the fold induction at 10 µM [2] read?
Its fold induction at 10 µM is 1.6.

For C1=CC2CCC1CN2Cc1c[nH]c2ccccc12 (racemic) [Compound 18b, 2-[(1H-indol-3-yl)methyl]-2-azabicyclo[2.2.2]oct-5-ene], which fold induction at 10 µM [2] is on record?
Its fold induction at 10 µM is 1.6 ± 0.1.

Which fold induction at 10 µM [2] does the source give for CCOC(=O)C1CC2C=CC1N(CCc1c[nH]c3ccccc13)C2 (racemic) [Compound 21, 7-exo-ethoxycarbonyl-2-[2-(1H-indol-3-yl)ethyl]-2-azabicyclo[2.2.2]oct-5-ene] here?
The fold induction at 10 µM was 1.

For CCOC(=O)C1CC2C=CC1N(CCc1c[nH]c3ccccc13)C2 (racemic) [Compound 22, 7-endo-ethoxycarbonyl-2-[2-(1H-indol-3-yl)ethyl]-2-azabicyclo[2.2.2]oct-5-ene], which “Fold-Increase of GDNF Concentration” value [2] is on record?
The value was 2.0 ± 0.0 fold.

With CC[C@H]1C[C@H]2C[C@H]3c4[nH]c5ccc(O)cc5c4CCN(C2)[C@@H]13 [noribogaine] as the molecule, how does the “self-administration and reinstatement of alcohol intake” value (“self-administration and reinstatement” for short) [3] read?
The value was “reduce self-administration and reinstatement of alcohol intake”.

And the “self-administration and reinstatement” value [4]?
Its value is “reduce self-administration and reinstatement of alcohol intake”.

For ibogaine, which “self-administration and reinstatement” value [3] is on record?
Its value is “reduce self-administration and reinstatement of alcohol intake”.

And the “self-administration and reinstatement” value [4]?
Its value is “reduce self-administration and reinstatement of alcohol intake”.
